Source: ChEMBL document CHEMBL5614369, “Design, synthesis and biological evaluation of Nrf2 modulators for the treatment of glioblastoma multiforme” (Bioorg Med Chem, 2024)
Active and inactive are the calls of the source. No cut-off for these calls is given here.

Legend:
U-87 MG [1] = assay: Cytotoxicity against human U87 cells assessed as reduction in cell count at 12.5 to 200 uM incubated for 48 hrs by crystal violet staining based microscopic analysis; type: functional; settings: U-87MG ATCC, dose 12.5-200 µM
U-87 MG [2] = assay: Antitumor activity against human U87 cells assessed as reduction in cell viability incubated for 48 hrs by CCK-8 assay; type: functional, cell-based, U-87MG ATCC
U-87 MG [3] = assay: Anti-tumor activity against human U87 cells assessed as reduction in cell proliferation by measuring reduction in green fluorescence intensity at 50 to 100 uM incubated for 48 hrs by Calcein AM dye based fluorescence microscopy; type: functional; settings: U-87MG ATCC, dose 50-100 µM
U-87 MG [4] = assay: Antitumor activity against human U87 cells assessed as residual cell viability at 100 uM incubated for 48 hrs by CCK-8 assay relative to control; type: functional, U-87MG ATCC

| IC50 (U-87 MG [2]) | Structure (SMILES) | Activity (U-87 MG [1]) | Activity (U-87 MG [2]; U-87MG ATCC) | Activity (U-87 MG [3]) | Activity (U-87 MG [4]) |
| --- | --- | --- | --- | --- | --- |
| 89 µM | Oc1cc(O)cc(/C=C/c2ccccc2)c1 [PINOSYLVIN] | Active | Dose-Dependent Effect | Active | 90% |
| – | Cn1nnc2c(C(N)=O)ncn2c1=O [TEMOZOLOMIDE] | – | – | – | 47% |
